Measured values reported in ChEMBL document CHEMBL1201862, “PubChem BioAssay data set” (2004).
The source made the active and inactive calls.

Legend:
[1] = target: T1, Neuropeptide Y receptor type 2 (Homo sapiens, UniProt P49146); assay: Fluorescence-based cell-based high-throughput dose response assay for agonists of NPY-Y2. [Related pubchem assays: 1703 (Screening assay (CNGC inhibitors).), 1359 (Screening assay (NPY-Y2 potentiators or agonists).), 1304 (Screening assay (NPY-Y1 potentiators or agonists).), 1710 (Screening assay (NPY-Y2 agonists).), 1791 (Summary AID.)]; format: functional
T1 sequence (P49146 whole entry): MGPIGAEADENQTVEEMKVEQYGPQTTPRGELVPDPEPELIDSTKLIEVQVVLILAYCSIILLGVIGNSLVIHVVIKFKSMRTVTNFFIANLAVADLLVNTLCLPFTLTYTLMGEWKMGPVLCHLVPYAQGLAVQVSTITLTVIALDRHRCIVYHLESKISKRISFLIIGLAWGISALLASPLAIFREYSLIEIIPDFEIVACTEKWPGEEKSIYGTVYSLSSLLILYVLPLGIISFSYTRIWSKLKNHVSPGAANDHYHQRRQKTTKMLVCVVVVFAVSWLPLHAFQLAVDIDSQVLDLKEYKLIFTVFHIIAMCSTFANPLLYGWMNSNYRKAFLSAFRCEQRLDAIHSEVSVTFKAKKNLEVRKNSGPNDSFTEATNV

[2] = target: T2, Neuropeptide Y receptor type 1 (Homo sapiens, UniProt P25929); assay: Fluorescence-based counterscreen for agonists of NPY-Y2: cell-based high-throughput dose response assay for agonists of NPY-Y1.; format: functional
T2 sequence (P25929 whole entry): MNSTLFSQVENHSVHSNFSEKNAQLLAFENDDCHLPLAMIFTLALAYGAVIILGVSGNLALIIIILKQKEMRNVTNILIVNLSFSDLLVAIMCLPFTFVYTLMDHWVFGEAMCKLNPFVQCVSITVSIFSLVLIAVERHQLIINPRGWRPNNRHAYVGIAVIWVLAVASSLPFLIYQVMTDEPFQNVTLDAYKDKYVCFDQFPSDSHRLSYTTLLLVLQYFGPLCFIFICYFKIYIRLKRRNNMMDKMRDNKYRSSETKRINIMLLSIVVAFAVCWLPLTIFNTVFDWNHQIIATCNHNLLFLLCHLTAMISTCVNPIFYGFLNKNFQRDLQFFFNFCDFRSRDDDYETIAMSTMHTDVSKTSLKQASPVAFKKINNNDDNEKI

[3] = target: T3, Runt-related transcription factor 1/Core-binding factor subunit beta (Homo sapiens, UniProt Q01196+Q13951); assay: disruptors of Runt domain/CBFb-SMMHC interaction – biochemical, FRET, Cerulean-Runt, Venus-CBFb-SMMHC, uHTS, […] (AID 1434); format: protein assay
T3 sequence (Q01196 whole entry, the tested form may be a part): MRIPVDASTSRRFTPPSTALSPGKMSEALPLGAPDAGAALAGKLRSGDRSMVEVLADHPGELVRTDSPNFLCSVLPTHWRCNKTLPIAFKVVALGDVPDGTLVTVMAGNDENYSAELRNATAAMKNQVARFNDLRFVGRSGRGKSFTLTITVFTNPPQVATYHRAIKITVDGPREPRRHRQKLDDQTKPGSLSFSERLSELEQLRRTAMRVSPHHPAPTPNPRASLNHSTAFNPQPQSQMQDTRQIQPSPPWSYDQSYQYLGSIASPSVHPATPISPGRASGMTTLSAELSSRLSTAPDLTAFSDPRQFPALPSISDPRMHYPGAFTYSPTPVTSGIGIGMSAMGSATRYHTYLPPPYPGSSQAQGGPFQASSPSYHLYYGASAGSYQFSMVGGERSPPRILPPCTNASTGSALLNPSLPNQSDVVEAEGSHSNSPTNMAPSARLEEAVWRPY
T3 sequence (Q13951 whole entry, the tested form may be a part): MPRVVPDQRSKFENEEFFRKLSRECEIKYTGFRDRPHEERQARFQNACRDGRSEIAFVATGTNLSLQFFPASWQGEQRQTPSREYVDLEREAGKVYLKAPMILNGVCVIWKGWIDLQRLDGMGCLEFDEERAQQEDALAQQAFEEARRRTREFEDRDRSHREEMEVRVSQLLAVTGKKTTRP

HEK293 = assay: Fluorescence-based counterscreen for potentiators or agonists of NPY-Y2: cell-based high-throughput dose response assay to identify inhibitors of cyclic nucleotide gated ion channel (CNGC) activity. In this assay, the parental HEK293 cell line transfected with a cyclic-nucleotide gated ion channel (CNGC)-based cAMP sensor is used to measure inhibition of isoproterenol-induced CNGC activity by test compound.; format: functional; conditions: Homo sapiens;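 note: stimulus is 1 µM isoproterenol at EC100 plus PDE inhibitor Ro 20-1724 at 25 µM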
[4] = target: T3, Runt-related transcription factor 1/Core-binding factor subunit beta; assay: Runt domain/CBFb-SMMHC interaction disruptors – biochemical, TR-FRET (AID 1438); format: protein assay
[5] = target: T4, RNA-binding protein pos-1 (Caenorhabditis elegans, UniProt G5EF15); assay: disruptors of C. elegans POS-1 RNA interaction – biochemical, fluorescence polarization, dose response (AID 1964);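 note: purified POS-1 fused to maltose binding protein made in E. coli; potency of compounds blocking POS-1 binding to fluorescent RNA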
T4 sequence (G5EF15 whole entry): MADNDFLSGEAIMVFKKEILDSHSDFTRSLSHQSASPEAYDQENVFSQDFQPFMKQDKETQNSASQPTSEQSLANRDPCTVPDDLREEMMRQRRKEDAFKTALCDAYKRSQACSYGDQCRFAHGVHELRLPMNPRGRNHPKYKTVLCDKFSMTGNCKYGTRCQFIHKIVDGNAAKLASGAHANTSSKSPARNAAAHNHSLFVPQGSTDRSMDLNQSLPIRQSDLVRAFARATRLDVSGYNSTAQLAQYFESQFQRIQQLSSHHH

[6] = target: T5, Zinc finger protein mex-5 (Caenorhabditis elegans, UniProt Q9XUB2); assay: potency of MEX-5 RNA-binding blockers – biochemical, C. elegans, fluorescence polarization, dose response (AID 1960)
T5 sequence (Q9XUB2 whole entry): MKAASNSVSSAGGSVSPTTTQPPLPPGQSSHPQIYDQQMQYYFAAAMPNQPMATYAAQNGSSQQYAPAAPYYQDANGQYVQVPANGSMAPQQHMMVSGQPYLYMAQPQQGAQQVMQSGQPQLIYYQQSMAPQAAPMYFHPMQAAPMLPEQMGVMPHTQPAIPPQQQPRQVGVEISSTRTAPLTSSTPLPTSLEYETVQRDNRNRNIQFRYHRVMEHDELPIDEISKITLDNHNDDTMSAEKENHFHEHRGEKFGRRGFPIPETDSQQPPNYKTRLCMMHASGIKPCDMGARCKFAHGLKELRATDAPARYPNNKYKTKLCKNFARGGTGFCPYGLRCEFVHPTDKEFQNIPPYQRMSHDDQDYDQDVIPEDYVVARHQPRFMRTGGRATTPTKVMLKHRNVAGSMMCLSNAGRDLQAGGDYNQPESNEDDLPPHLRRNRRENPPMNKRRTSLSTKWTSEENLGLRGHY

[7] = target: T6, Alkaline phosphatase, tissue-nonspecific isozyme (Homo sapiens, UniProt P05186); assay: TNAP enzyme inhibition by screening hits, dose response, selectivity assay for mouse IAP inhibitor project, biochemical, human TNAP, uHTS hits (AID 488906); format: functional
T6 sequence (P05186 whole entry): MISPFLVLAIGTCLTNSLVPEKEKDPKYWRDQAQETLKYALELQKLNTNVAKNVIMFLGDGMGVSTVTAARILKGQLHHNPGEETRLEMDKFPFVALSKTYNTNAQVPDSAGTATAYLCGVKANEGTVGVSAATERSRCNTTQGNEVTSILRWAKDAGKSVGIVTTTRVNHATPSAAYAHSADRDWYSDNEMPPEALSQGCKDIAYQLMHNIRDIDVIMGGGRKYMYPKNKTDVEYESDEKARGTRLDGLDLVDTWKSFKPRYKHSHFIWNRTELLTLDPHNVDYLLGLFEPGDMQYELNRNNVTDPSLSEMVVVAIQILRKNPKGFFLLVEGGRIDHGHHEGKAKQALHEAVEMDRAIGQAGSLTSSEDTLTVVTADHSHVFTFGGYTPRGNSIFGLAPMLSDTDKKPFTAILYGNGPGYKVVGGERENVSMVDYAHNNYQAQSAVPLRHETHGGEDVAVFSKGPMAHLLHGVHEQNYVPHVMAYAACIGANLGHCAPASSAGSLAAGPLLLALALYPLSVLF

[8] = target: Intestinal-type alkaline phosphatase (Mus musculus, UniProt P24822); assay: PubChem AID 488785; format: functional
Chain of Intestinal-type alkaline phosphatase (Mus musculus, UniProt P24822) (P24822 whole entry): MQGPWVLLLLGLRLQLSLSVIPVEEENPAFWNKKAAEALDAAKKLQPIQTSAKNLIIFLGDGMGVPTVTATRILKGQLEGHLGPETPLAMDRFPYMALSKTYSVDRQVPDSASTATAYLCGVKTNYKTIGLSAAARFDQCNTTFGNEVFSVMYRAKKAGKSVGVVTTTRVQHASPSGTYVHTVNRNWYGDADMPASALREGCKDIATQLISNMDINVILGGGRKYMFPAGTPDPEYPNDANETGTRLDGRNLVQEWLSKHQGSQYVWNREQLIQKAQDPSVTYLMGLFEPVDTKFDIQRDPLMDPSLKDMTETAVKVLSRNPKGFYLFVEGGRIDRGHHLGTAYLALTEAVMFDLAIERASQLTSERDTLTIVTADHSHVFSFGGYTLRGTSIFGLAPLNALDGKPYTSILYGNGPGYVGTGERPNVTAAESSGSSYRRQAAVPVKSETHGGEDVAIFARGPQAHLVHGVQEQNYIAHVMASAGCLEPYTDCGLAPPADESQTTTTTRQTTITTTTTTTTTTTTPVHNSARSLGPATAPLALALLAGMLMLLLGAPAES

[9] = target: Intestinal-type alkaline phosphatase (Homo sapiens, UniProt P09923); assay: inhibition of human intestinal alkaline phosphatase – biochemical, dose response (AID 488876); format: functional
Chain of Intestinal-type alkaline phosphatase (Homo sapiens, UniProt P09923) (P09923 whole entry): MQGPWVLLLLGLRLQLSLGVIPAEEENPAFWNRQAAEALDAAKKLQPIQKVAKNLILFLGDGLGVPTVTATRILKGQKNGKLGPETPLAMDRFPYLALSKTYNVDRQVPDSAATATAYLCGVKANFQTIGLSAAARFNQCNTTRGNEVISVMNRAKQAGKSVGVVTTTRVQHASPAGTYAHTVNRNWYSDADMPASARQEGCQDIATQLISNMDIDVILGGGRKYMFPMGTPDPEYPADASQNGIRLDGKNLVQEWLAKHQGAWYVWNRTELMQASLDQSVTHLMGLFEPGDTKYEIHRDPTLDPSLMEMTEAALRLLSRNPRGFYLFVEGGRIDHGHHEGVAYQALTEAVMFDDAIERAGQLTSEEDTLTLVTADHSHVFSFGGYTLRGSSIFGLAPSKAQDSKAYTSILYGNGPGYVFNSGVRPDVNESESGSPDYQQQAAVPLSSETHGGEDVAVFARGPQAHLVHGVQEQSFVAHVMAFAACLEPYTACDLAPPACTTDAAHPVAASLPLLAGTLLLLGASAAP

Large T antigen = Large T antigen (Simian virus 40, UniProt P03070); format: functional, Betapolyomavirus macacae;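 note: Confirmatory-stage PubChem screen for compounds that inhibit SV40 T antigen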
Chain of Large T antigen (P03070 whole entry): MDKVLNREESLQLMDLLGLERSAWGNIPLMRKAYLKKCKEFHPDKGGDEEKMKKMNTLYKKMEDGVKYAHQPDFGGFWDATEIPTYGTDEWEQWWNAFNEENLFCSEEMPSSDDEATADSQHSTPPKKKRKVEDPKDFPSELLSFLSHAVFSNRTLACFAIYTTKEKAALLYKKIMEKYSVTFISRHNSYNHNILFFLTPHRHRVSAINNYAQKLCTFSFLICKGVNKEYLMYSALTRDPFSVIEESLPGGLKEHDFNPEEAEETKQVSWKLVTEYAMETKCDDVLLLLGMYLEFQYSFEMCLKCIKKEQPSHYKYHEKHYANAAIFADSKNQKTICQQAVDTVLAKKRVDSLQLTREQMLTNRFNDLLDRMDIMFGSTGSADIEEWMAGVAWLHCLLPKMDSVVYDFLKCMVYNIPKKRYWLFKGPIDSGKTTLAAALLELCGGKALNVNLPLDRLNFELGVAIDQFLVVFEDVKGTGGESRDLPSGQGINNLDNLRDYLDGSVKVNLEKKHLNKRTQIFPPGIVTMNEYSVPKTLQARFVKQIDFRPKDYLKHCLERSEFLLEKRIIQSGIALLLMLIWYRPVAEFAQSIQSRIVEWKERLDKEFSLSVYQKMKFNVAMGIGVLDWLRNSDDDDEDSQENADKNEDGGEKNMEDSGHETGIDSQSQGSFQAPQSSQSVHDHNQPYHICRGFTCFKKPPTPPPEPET

[10] = target: T7, Kappa-type opioid receptor (Homo sapiens, UniProt P41145); format: functional
T7 sequence (P41145 whole entry): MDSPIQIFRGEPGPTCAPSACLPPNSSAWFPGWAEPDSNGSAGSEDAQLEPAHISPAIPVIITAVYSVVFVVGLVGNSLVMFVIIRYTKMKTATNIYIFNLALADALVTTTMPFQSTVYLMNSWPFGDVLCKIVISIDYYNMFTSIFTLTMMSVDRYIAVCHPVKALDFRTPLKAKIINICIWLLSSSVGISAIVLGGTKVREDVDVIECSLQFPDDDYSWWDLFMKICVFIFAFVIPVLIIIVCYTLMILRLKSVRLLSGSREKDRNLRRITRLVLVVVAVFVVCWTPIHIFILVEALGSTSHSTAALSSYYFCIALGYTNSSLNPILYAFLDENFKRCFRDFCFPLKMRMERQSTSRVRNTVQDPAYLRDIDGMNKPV

[11] = target: T8, Delta-type opioid receptor (Homo sapiens, UniProt P41143); assay: HTS Image-Based Screen for Antagonists of the DOR Receptor. [Related pubchem assays (depositor defined):AID1777, AID1785, AID1786, AID2133]; format: functional
T8 sequence (P41143 whole entry): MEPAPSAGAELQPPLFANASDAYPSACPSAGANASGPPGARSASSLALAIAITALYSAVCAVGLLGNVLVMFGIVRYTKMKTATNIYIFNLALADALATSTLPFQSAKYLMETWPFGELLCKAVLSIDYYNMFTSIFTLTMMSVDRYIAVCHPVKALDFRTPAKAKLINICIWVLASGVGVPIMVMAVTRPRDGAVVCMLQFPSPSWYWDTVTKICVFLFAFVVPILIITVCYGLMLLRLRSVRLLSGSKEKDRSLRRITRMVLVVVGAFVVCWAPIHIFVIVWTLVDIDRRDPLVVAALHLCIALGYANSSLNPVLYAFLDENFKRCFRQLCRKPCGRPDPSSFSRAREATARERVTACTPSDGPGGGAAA

Mu-type opioid receptor [12] = target: T9, Mu-type opioid receptor (Homo sapiens, UniProt P35372); assay: mu opioid receptor blockers – image-based, SAR follow-up (AID 2420); format: functional;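 note: compounds added before stimulation of receptor with agonist DAMGO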
T9 sequence (P35372 whole entry): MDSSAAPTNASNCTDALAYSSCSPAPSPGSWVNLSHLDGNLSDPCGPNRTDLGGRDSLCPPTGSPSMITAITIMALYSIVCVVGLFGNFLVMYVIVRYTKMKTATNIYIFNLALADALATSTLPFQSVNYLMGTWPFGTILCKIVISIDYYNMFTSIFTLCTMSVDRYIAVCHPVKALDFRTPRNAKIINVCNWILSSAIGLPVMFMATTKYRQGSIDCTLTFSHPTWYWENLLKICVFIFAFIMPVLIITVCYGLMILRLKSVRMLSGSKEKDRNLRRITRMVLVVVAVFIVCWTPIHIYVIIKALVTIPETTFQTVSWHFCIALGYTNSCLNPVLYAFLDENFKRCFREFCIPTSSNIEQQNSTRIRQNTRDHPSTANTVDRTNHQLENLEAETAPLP

[13] = target: T7, Kappa-type opioid receptor; assay: kappa opioid receptor blockers, image-based, SAR follow-up (AID 2348); format: functional
[14] = target: T7, Kappa-type opioid receptor; assay: kappa opioid receptor activation potency – imaging, image-based, SAR follow-up (AID 2359); format: functional
Mu-type opioid receptor [15] = target: T9, Mu-type opioid receptor; assay: HTS Image-Based Screen for Agonists of the MOR Receptor. [Related pubchem assays (depositor defined):AID1777, AID1785, AID1786, AID2133]; format: functional
Coagulation factor XII = target: T10, Coagulation factor XII (Homo sapiens, UniProt P00748); format: functional;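 note: activated factor XIIa alpha cleaving a fluorogenic AMC peptide substrate; inhibitor potency from loss of enzyme activity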
T10 sequence (P00748 whole entry): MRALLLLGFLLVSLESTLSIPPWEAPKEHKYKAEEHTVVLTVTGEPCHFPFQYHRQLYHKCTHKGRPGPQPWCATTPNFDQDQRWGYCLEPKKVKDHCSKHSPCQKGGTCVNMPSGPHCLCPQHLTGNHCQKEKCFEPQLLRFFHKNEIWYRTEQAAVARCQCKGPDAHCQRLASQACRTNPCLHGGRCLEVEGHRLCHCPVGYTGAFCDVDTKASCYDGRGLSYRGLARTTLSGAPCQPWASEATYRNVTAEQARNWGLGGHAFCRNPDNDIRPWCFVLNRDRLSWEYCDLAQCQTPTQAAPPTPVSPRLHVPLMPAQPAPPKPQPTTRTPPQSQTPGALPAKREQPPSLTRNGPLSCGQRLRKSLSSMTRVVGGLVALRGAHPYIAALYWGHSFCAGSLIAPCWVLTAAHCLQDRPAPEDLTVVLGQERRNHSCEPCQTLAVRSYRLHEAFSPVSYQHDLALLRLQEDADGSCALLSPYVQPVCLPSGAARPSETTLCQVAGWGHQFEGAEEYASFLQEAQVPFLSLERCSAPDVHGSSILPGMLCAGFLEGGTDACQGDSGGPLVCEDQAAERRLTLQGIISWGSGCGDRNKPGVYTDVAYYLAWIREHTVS

Mu-type opioid receptor [16] = target: T9, Mu-type opioid receptor; assay: mu opioid receptor activators, image-based, SAR follow-up (AID 2352); format: functional
[17] = target: T8, Delta-type opioid receptor; assay: delta opioid receptor blockers – image-based, SAR follow-up (AID 2357); format: functional
[18] = target: T7, Kappa-type opioid receptor; assay: SAR analysis of small molecule agonists of the kappa opioid receptor via a luminescent beta-arrestin assay. [Related pubchem assays (depositor defined):AID1777, AID1786, AID1966, AID2133, AID2136, AID2348, AID2352, AID2357, AID2359, AID2370, AID2420, AID2478, AID2491, AID2492, AID2493, AID2497, AID2498, AID2500, AID449737, AID488822, AID488842]; format: functional
[19] = target: T8, Delta-type opioid receptor; assay: HTS Image-Based Screen for Agonists of the DOR Receptor. [Related pubchem assays (depositor defined):AID1777, AID1786, AID2133]; format: functional
[20] = target: T8, Delta-type opioid receptor; assay: DOR agonists, SAR follow-up, image-based (AID 2370); format: functional
[21] = target: T7, Kappa-type opioid receptor; format: functional; remark: listed apart in the source
[22] = target: Peroxisome proliferator-activated receptor gamma/Nuclear receptor coactivator 1 (Homo sapiens, UniProt P37231); assay: (§1) TR-FRET dose response biochemical High Throughput Screening assay for agonists of the steroid receptor coactivator 1 (SRC-1) recruitment by the peroxisome proliferator-activated receptor gamma (PPAR gamma): non-selective agonists. [Related pubchem assays (depositor defined):AID1300, AID1808, AID504735, AID631]; format: protein assay
[23] = target: Peroxisome proliferator-activated receptor gamma/Nuclear receptor coactivator 3 (Homo sapiens, UniProt P37231); assay: as §1, with “3 (SRC-3)” for “1 (SRC-1)”, “assays: 1301 (Confirmation screen.), 1048 (Primary screen.)]” for “assays (depositor defined):AID1300, AID1808, AID504735, AID631]”; format: functional
[24] = target: FAD-linked sulfhydryl oxidase ALR (Homo sapiens, UniProt P55789); assay: ALR-catalysed DTT oxidation blockers – biochemical, H2O2 detection, luminescence, cherry-pick, dose response (AID 493248)
Chain of FAD-linked sulfhydryl oxidase ALR (P55789 whole entry): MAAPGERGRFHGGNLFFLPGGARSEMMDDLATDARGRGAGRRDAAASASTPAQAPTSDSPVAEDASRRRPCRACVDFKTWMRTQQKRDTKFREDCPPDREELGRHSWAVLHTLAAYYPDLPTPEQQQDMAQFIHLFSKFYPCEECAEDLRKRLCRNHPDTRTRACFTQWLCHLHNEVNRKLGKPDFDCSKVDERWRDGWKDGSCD

[25] = target: Peroxisome proliferator-activated receptor gamma/Nuclear receptor coactivator 2 (Homo sapiens, UniProt P37231); assay: TR-FRET dose response biochemical High Throughput Screening assay for agonists of the steroid receptor coactivator 2 (SRC-2) recruitment by the peroxisome proliferator-activated receptor gamma (PPAR gamma): non-selective agonists. [Related pubchem assays: 1297, 1032 ]; format: functional

SMILES: Cc1cc(/C=N/NC(=O)Cn2c3ccccc3c(=O)c3ccccc32)c(C)n1-c1ccc(Cl)cc1
- EC50 [1]: > 35.4 µM (not active)
- EC50 [2]: > 35.4 µM (not active)
- IC50 [3]: 4.69 µM (active)
- EC50 (HEK293): 3.28 µM (active)
- IC50 [4]: 11.6 µM (active)

SMILES: CCOc1ccc(S(=O)(=O)Nc2cc(Sc3nnc[nH]3)c3oc(=O)sc3c2)cc1
- EC50 [5]: 65.8 µM (active)
- EC50 [6]: 14.6 µM (active)
- IC50 [7]: > 100 µM (inactive)
- IC50 [8]: 5.37 µM (active)
- IC50 [9]: > 100 µM (inactive)
- IC50 (Large T antigen): 20.8 µM (active)

SMILES: CCC(C)(C(=O)NC1CCCCC1)N(Cc1ccco1)C(=O)c1ccccn1 (stereo not drawn)
- EC50 [10]: 0.251 µM
- IC50 [11]: > 32 µM (inactive)
- IC50 (Mu-type opioid receptor [12]): > 32 µM (inactive)
- IC50 [13]: > 32 µM (inactive)
- EC50 [14]: 0.168 µM (active)
- EC50 (Mu-type opioid receptor [15]): > 32 µM (inactive)
- IC50 (Coagulation factor XII): > 50 µM (inactive)
- EC50 (Mu-type opioid receptor [16]): > 32 µM (inactive)
- IC50 [17]: > 32 µM (inactive)
- EC50 [18]: 0.645 µM (active)
- EC50 [19]: > 32 µM (inactive)
- EC50 [20]: > 32 µM (inactive)
- EC50 [21]: < 0.5 µM

SMILES: Cc1c(Cl)c(-c2nnc(S)n2-c2ccccc2)nn1C
- EC50 [22]: > 79.4 µM (inactive)
- EC50 [23]: > 79.4 µM (not active)
- AC50 [24]: < 0.014 µM (active)
- EC50 [25]: > 79.4 µM (not active)
